Data from the NIST ThermoML archive (doi:10.1016/j.jct.2013.07.011).
± gives the expanded uncertainty stated by the source.

Conditions: 298.15 K; 101.33 kPa; Liquid; Vibrating tube method

mass density [kg/m3] | SMILES
698.6 ± 0.23 | CCCCCCCC [octane]
713.99 ± 0.32 | CCCCCCCCC [nonane]
831.47 ± 0.3 | C1CCCCCCC1 [cyclooctane]
873.57 ± 0.11 | c1ccccc1 [benzene]
1212.59 ± 4 | CCCCn1cc[n+](C)c1.COS(=O)(=O)[O-] [1-butyl-3-methylimidazolium methyl sulfate]

SMILES | mass density [kg/m3]
CCCC[n+]1ccn(C)c1.O=S(=O)([N-]S(=O)(=O)C(F)(F)F)C(F)(F)F | 1436.35 ± 4
Cc1ccccc1 [toluene] | 862.17 ± 0.11
